The source of these data is patent US8492582B2, “N-acyl anthranilic acid derivative or salt thereof” (Toyama Chemical Co., Ltd., priority 2009, dated 2013).

The assay concerns type I collagen α1 chain mRNA in WI-38 cells. The assay is described as follows: Type I collagen α1 chain mRNA expression inhibition test. The conditions noted are these: Homo sapiens, read-out: Inhibition rate (%) at 10 μmol/L. The assay is classed as cell-based. The method, then: Human embryonic lung fibroblast cell line WI-38 cells were suspended in a Dulbecco's modified Eagle's medium containing 10% fetal calf serum, and 7.5×10^4 cells were inoculated on a 12-well plate and cultured for 3 days, or 1.5×10^5 cells were inoculated and cultured for 2 days. After the growth of the cells to a subconfluent state, the culture medium was changed to a Dulbecco's modified Eagle's medium containing 0.4% fetal calf serum and 50 μg/mL ascorbic acid, and the cells were further cultured for 24 hours. Then, a test compound was added thereto, and, one hour later, TGF-β1 was added at a final concentration of 1 ng/mL. Twenty-four hours after the addition, the total RNA was extracted from the cells using an RNA extraction kit (SV Total RNA Isolation System, Promega), and cDNA was synthesized using a reverse transcriptase (ReverTra Ace, TOYOBO). The expression level of the type I collagen al chain mRNA was analyzed with a real-time PCR instrument (ABI PRISM 7700 Sequence Detection System, Applied Biosystems) by a real-time PCR method using a premix reagent of real-time PCR (SYBR Premix Ex Taq or SYBR Premix Ex Taq II (Perfect Real Time), TaKaRa). A PCR reaction was conducted with diluted cDNA as a template, using primers specific for a type I collagen α1 chain gene or a GAPDH gene as an internal standard, and the reaction product was measured. The PCR reaction was conducted by incubation at 95° C. for 10 seconds and 45 cycles of denaturation at 95° C. for 5 seconds and annealing/extension at 60° C. for 30 seconds. The expression level of the type I collagen α1 chain mRNA was corrected with GAPDH and was expressed as a relative value when the expression level obtained in the absence of the test compound was defined as 100%.

The mark [1] stands for this setting: 10 μmol/L test compound, WI-38 cells, TGF-β1 1 ng/mL, 24 hours, Table 4a.
The mark [2] stands for this setting: 10 μmol/L test compound, WI-38 cells, TGF-β1 1 ng/mL, 24 hours, Table 4b.

Counter-ions that a name gives are not always drawn. Like-named read-outs stand apart in the source and are kept apart here.

For `O=C(Nc1cc(-c2ccccc2)ccc1C(=O)O)c1cc(OCCN2CCCCCC2)ccc1O` [181a, 2-(5-(2-(Homopiperidin-1-yl)ethoxy)-2-hydroxybenzamido)-4-phenylbenzoic acid hydrochloride], the inhibition at 10 µM under setting [1] amounted to 74%.

Regarding `CCN1CCC(c2ccc(O)c(C(=O)Nc3cc(-c4ccccc4)ccc3C(=O)O)c2)CC1` [222a, 2-(5-(1-ethylpiperidin-4-yl)-2-hydroxybenzamido)-4-phenylbenzoic acid], the inhibition at 10 µM under setting [1] was 85%.

Regarding `Nc1ccccc1-c1ccc(C(=O)O)c(NC(=O)c2cncc(-c3ccccc3)c2)c1` [27b, 4-(2-Aminophenyl)-2-(5-phenylpyridine-3-carboxamido)benzoic acid], the inhibition at 10 µM under setting [2] amounted to 72%.

In the case of `CCN(CC)CCN(C)c1ccc(O)c(C(=O)Nc2cc(-c3ccccc3)ccc2C(=O)O)c1` [Example 102a, 2-(5-((2-(Diethylamino)ethyl)(methyl)amino)-2-hydroxybenzamido)-4-phenylbenzoic acid], under setting [1], the inhibition at 10 µM was determined as 89%.

As to `O=C(Nc1cc(-c2ccccc2)ccc1C(=O)O)c1cc(N2CCSCC2)ccc1O` [Example 89a, 2-(2-hydroxy-5-(thiomorpholin-4-yl)benzamido)-4-phenylbenzoic acid], the inhibition at 10 µM under setting [1] is 98%.

On to `CN1CCN(c2ccc(O)c(C(=O)Nc3cc(-c4ccccc4)ccc3C(=O)O)c2)CC1=O` [193a, 2-(2-Hydroxy-5-(4-methyl-3-oxopiperazin-1-yl)benzamido)-4-phenylbenzoic acid], for which the inhibition at 10 µM under setting [1] was found to be 85%.

Take `CNc1ccccc1-c1ccc(C(=O)O)c(NC(=O)c2cncc(-c3ccccc3)c2)c1` [12b, 4-(2-(Methylamino)phenyl)-2-(5-phenylpyridine-3-carboxamido)benzoic acid]: under setting [2], the inhibition at 10 µM turned out to be 87%.

With `O=C(Nc1cc(-c2ccccc2)ccc1C(=O)O)c1cc(-n2cccn2)ccc1O` [Example 22a, 2-(2-hydroxy-5-(1H-pyrazol-1-yl)benzamido)-4-phenylbenzoic acid], the inhibition at 10 µM under setting [1] was determined as 97%.

Consider `Cc1cccc(-c2ccc(C(=O)O)c(NC(=O)c3cc(N4CCOCC4)ccc3O)c2)c1` [201a, 2-(2-Hydroxy-5-(morpholin-4-yl)benzamido)-4-(3-methylphenyl)benzoic acid], for which the inhibition at 10 µM under setting [1] worked out at 94%.

For the compound `O=C(Nc1cc(-c2ccoc2)ccc1C(=O)O)c1cc(-c2cccnc2)ccc1O` [Example 46a, sodium 4-(furan-3-yl)-2-(2-hydroxy-5-(pyridin-3-yl)benzamido)benzoate], for the setting “WI-38, 24 h”, the inhibition at 10 µM was determined as 91%.

With `O=C(Nc1cc(-c2ccccc2)ccc1C(=O)O)c1ccc(-c2cccnc2)cc1O` [Example 13a, sodium 2-(2-hydroxy-4-(pyridin-3-yl)benzamido)-4-phenylbenzoate], for the setting “WI-38, 24 h”, the inhibition at 10 µM turned out to be 93%.

Take `O=C(Nc1cc(-c2ccccc2)ccc1C(=O)O)c1cc(Cl)ccc1O` [Example 2a, 2-(5-Chloro-2-hydroxybenzamido)-4-phenylbenzoic acid]: the inhibition at 10 µM under setting [1] was found to be 99%.

In the case of `O=C(Nc1cc(-c2ccccc2)ccc1C(=O)O)c1cc(OCCN2CCC(CCO)CC2)ccc1O` [180a, 2-(2-Hydroxy-5-(2-(4-(hydroxyethyl)piperidin-1-yl)ethoxy)benzamido)-4-phenylbenzoic acid hydrochloride], the inhibition at 10 µM under setting [1] worked out at 85%.

Regarding `O=C(O)c1ccc(-c2ccccc2)cc1NC(=O)c1cccc(-c2cccnc2)c1O` [Example 16a, Sodium 2-(2-hydroxy-3-(pyridin-3-yl)benzamido)-4-phenylbenzoate], the inhibition at 10 µM under setting [1] worked out at 80%.

Take `CN1CCCCC1c1ccc(O)c(C(=O)Nc2cc(-c3ccccc3)ccc2C(=O)O)c1` (centres unmarked) [217a, 2-(2-hydroxy-5-(1-methylpiperidin-2-yl)benzamido)-4-phenylbenzoic acid]: the inhibition at 10 µM under setting [1] worked out at 91%.

As to `COc1ccccc1-c1ccc(C(=O)O)c(NC(=O)c2cc(-c3ccccn3)ccc2O)c1` [Example 35a, 2-(2-Hydroxy-5-(pyridin-2-yl)benzamido)-4-(2-methoxyphenyl)benzoic acid hydrochloride], under setting [1], the inhibition at 10 µM is 90%.

Regarding `O=C(Nc1cc(-c2ccccc2)ccc1C(=O)O)c1cc(-n2ccnc2)ccc1O` [Example 34a, 2-(2-Hydroxy-5-(1H-imidazol-1-yl)benzamido)-4-phenylbenzoic acid hydrochloride], the inhibition at 10 µM under setting [1] was 82%.

As for `O=C(Nc1cc(-c2ccccc2)ccc1C(=O)O)c1cc(OCCN2CCC2)ccc1O` [177a, 2-(5-(2-(azetidin-1-yl)ethoxy)-2-hydroxybenzamido)-4-phenylbenzoic acid hydrochloride], the inhibition at 10 µM under setting [1] amounted to 82%.

On to `O=C(Nc1cc(-c2cccc(F)c2)ccc1C(=O)O)c1cc(N2CCOCC2)ccc1O` [198a, 4-(3-Fluorophenyl)-2-(2-hydroxy-5-(morpholin-4-yl)benzamido)benzoic acid], for which the inhibition at 10 µM under setting [1] was 81%.

Turning to `Cc1ccc(O)c(C(=O)Nc2cc(-c3ccccc3)ccc2C(=O)O)c1` [Example 4a, 2-(2-Hydroxy-5-methylbenzamido)-4-phenylbenzoic acid], under setting [1], the inhibition at 10 µM came out at 97%.

As to `COc1ccccc1-c1ccc(C(=O)O)c(NC(=O)c2cc(-c3cccnc3)ccc2O)c1` [Example 37a, 2-(2-hydroxy-5-(pyridin-3-yl)benzamido)-4-(2-methoxyphenyl)benzoic acid], under setting [1], the inhibition at 10 µM is 94%.

`O=C(Nc1cc(-c2ccccc2)ccc1C(=O)O)c1ccnc(-c2ccccc2)c1` [4b, 4-Phenyl-2-(2-phenylpyridine-4-carboxamido)benzoic acid]: the inhibition at 10 µM under setting [2] was 93%.

In the case of `Cc1cccc(C(=O)Nc2cc(-c3ccccc3)ccc2C(=O)O)c1O` [Example 41a, 2-(2-hydroxy-3-methylbenzamido)-4-phenylbenzoic acid], under setting [1], the inhibition at 10 µM worked out at 99%.

`COc1cccc(-c2ccc(C(=O)O)c(NC(=O)c3cncc(-c4ccccc4)c3)c2)c1` [35b, Sodium 4-(3-methoxyphenyl)-2-(5-phenylpyridine-3-carboxamido)benzoate]: the inhibition at 10 µM under setting [2] is 96%.

`O=C(Nc1cc(-c2ccccc2)ccc1C(=O)O)c1cccc(-c2ccccc2)n1` [5b, 4-Phenyl-2-(6-phenylpyridine-2-carboxamido)benzoic acid]: the inhibition at 10 µM under setting [2] worked out at 72%.

In the case of `Cc1ccccc1-c1ccc(C(=O)O)c(NC(=O)c2cncc(-c3ccccc3)c2)c1` [32b, Sodium 4-(2-methylphenyl)-2-(5-phenylpyridine-3-carboxamido)benzoate], under setting [2], the inhibition at 10 µM is 81%.

With `Cc1cccc(-c2ccc(C(=O)O)c(NC(=O)c3cc(N4CCCCC4)ccc3O)c2)c1` [Example 149a, 2-(2-Hydroxy-5-(piperidin-1-yl)benzamido)-4-(3-methylphenyl)benzoic acid], the inhibition at 10 µM under setting [1] amounted to 97%.

Turning to `Cc1ccccc1-c1ccc(C(=O)O)c(NC(=O)c2cc(N3CCCCC3)ccc2O)c1` [Example 148a, 2-(2-hydroxy-5-(piperidin-1-yl)benzamido)-4-(2-methylphenyl)benzoic acid], the inhibition at 10 µM under setting [1] was 93%.

For `CCOc1ccccc1-c1ccc(C(=O)O)c(NC(=O)c2cncc(-c3ccccc3)c2)c1` [38b, Sodium 4-(2-ethoxyphenyl)-2-(5-phenylpyridine-3-carboxamido)benzoate], the inhibition at 10 µM under setting [2] turned out to be 94%.

Regarding `CN1CCN(CCCOc2ccc(O)c(C(=O)Nc3cc(-c4ccccc4)ccc3C(=O)O)c2)CC1` [Example 141a, 2-(2-hydroxy-5-(3-(4-methylpiperazin-1-yl)propoxy)benzamido)-4-phenylbenzoic acid dimethanesulfonate], the inhibition at 10 µM under setting [1] is 92%.

Consider `O=C(Nc1cc(-c2ccccc2)ccc1C(=O)O)c1cc(-c2ccncc2)ccc1O` [Example 19a, sodium 2-(2-hydroxy-5-(pyridin-4-yl)benzamido)-4-phenylbenzoate], for which the inhibition at 10 µM (WI-38, 24 h) is 83%.

Take `O=C(Nc1cc(-c2ccco2)ccc1C(=O)O)c1cc(-c2cccnc2)ccc1O` [Example 44a, sodium 4-(furan-2-yl)-2-(2-hydroxy-5-(pyridin-3-yl)benzamido)benzoate]: for the setting “WI-38, 24 h”, the inhibition at 10 µM was determined as 89%.

As for `O=C(Nc1cc(-c2ccccc2)ccc1C(=O)O)c1cc(N2CCC2)ccc1O` [Example 86a, 2-(5-(Azetidin-1-yl)-2-hydroxybenzamido)-4-phenylbenzoic acid hydrochloride], under setting [1], the inhibition at 10 µM was determined as 85%.

As to `O=C(Nc1cc(Nc2ccccc2)ccc1C(=O)O)c1cncc(-c2ccccc2)c1` [61b, 4-anilino-2-(5-phenylpyridine-3-carboxamido)benzoic acid], the inhibition at 10 µM under setting [2] came out at 86%.

For the compound `O=C(Nc1cc(-c2ccco2)ccc1C(=O)O)c1cc(N2CCCCC2)ccc1O` [Example 65a, 4-(furan-2-yl)-2-(2-hydroxy-5-(piperidin-1-yl)benzamido)benzoic acid methanesulfonate], under setting [1], the inhibition at 10 µM turned out to be 71%.
